Data on 5 compounds can be found in ChEMBL document CHEMBL3244109, “Synthesis of cyclohexyl carbocyclic puromycin and its inhibition of protein synthesis” (J Med Chem, 1977).

A short description of this assay: Inhibition of rate of poly(U,C) (unknown origin)-directed L-[14C]poly-(phenylalanine) formation in Escherichia coli cell-free ribosome system at 10^-3 M by liquid scintillation counting. The format is functional.

Activity calls are given as the source filed them. No cut-off for these calls is given here.

Consider `COc1ccc(C[C@H](N)C(=O)N[C@H]2CC[C@@H](n3cnc4c(N(C)C)ncnc43)[C@@H]2O)cc1`, for which the inhibition result is “inactive”.
The value for `COc1ccc(C[C@H](N)C(=O)N[C@@H]2CCC[C@H](n3cnc4c(N(C)C)ncnc43)[C@H]2O)cc1` was “inactive”.
In the case of `COc1ccc(C[C@H](N)C(=O)N[C@H]2CCC[C@@H](n3cnc4c(N(C)C)ncnc43)[C@@H]2O)cc1`, the inhibition result is “inactive”.
The same measure for `COc1ccc(C[C@H](N)C(=O)N[C@H]2CC[C@H](n3cnc4c(N(C)C)ncnc43)[C@H]2O)cc1`: “inactive”; for `COc1ccc(C[C@H](N)C(=O)N[C@@H]2CC[C@H](n3cnc4c(N(C)C)ncnc43)[C@H]2O)cc1`: “inactive”.
